According to ChEMBL document CHEMBL4177539, “Discovery of N-((3R,4R)-4-Fluoro-1-(6-((3-methoxy-1-methyl-1H-pyrazol-4-yl)amino)-9-methyl-9H-purin-2-yl)pyrrolidine-3-yl)acrylamide (PF-06747775) through Structure-Based Drug Design: A High Affinity Irreversible Inhibitor Targeting Oncogenic EGFR Mutants with Selectivity over Wild-Type EGFR” (J Med Chem, 2017):
Activity calls are given as the source filed them. The calls are words filed in the database; no cut-off is given here.

Tests used:
Canis familiaris [1] = assay: Toxicity in dog assessed as electrocardiogram changes administered as repeated dosing; format: organism-based, Canis lupus familiaris; conditions: in vivo
Canis familiaris [2] = assay: Toxicity in dog assessed as effect on pulmonary system functions administered as single dose; format: organism-based, Canis lupus familiaris; conditions: in vivo
[3] = Terminal half life in Wistar Han rat at 1 mg/kg, iv administered as single dose; format: ADME, organism-based; conditions: in vivo, read-out: beta t1/2 (converted)
CYP2C9 = CYP2C9 (Homo sapiens, UniProt P11712); assay: Inhibition of human CYP2C9 at 10 uM; format: ADME
Rattus norvegicus [4] = assay: Toxicity in rat assessed as effect on heart rate administered as repeated dosing; format: organism-based; conditions: in vivo
Rattus norvegicus [5] = assay: Toxicity in rat assessed as effect on heart rate administered as single dose; format: organism-based; conditions: in vivo
Rattus norvegicus [6] = assay: Toxicity in rat assessed as effect on blood pressure administered as single dose; format: organism-based; conditions: in vivo
[7] = target: Tyrosine-protein kinase BTK (Homo sapiens) (UniProt Q06187); assay: Inhibition of His-tagged full-length recombinant human BTK cytoplasmic domain expressed in Baculovirus expression system at 1 uM by FRET-based Z'-LYTE assay
Tyrosine-protein kinase BTK (Homo sapiens), sequence (Q06187 whole entry, the tested form may be a part): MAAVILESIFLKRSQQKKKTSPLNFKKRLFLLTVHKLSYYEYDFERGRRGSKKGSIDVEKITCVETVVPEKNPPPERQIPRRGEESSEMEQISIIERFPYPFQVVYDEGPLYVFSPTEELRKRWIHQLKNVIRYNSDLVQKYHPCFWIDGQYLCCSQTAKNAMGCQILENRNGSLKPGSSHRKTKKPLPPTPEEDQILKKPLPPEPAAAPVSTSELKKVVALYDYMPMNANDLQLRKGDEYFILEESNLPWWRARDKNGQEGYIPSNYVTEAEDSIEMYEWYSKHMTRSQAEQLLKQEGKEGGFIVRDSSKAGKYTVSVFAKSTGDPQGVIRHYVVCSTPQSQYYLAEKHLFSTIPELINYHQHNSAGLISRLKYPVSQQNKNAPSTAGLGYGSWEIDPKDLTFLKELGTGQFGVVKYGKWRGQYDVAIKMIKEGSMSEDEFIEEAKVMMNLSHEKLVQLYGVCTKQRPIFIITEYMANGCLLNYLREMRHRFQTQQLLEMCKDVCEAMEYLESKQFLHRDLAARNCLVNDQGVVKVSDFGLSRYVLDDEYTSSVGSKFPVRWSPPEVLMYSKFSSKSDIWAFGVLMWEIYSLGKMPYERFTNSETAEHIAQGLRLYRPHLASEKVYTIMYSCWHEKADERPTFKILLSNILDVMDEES

[8] = target: Tyrosine-protein kinase Blk (Homo sapiens) (UniProt P51451); assay: Inhibition of BLK (unknown origin) at 1 uM by cell based assay
[9] = Drug metabolism in human hepatocytes assessed as demethylation; format: ADME, cell-based, Hepatocyte
Canis familiaris [10] = assay: Toxicity in dog assessed as body weight loss administered as repeated dosing for 91 days; format: organism-based, Canis lupus familiaris; conditions: in vivo, 2184 h
[11] = Volume of distribution at steady state in Wistar Han rat at 1 mg/kg, iv administered as single dose; format: ADME, organism-based; conditions: in vivo, read-out: Vdss
Canis familiaris [12] = assay: Toxicity in dog assessed as effect on heart rate administered as repeated dosing; format: organism-based, Canis lupus familiaris; conditions: in vivo
Salmonella typhimurium = assay: Mutagenicity in Salmonella typhimurium by Ames test; format: toxicity, organism-based; conditions: salmonella enterica subsp. enterica serovar typhimurium
[13] = target: Activated CDC42 kinase 1 (Homo sapiens) (UniProt Q07912); assay: Inhibition of GST-tagged recombinant human ACK catalytic domain (110 to 476 residues) expressed in Baculovirus expression system at 1 uM by FRET-based Z'-LYTE assay
Activated CDC42 kinase 1 (Homo sapiens), sequence (Q07912 whole entry, looked up, the tested form may be a part): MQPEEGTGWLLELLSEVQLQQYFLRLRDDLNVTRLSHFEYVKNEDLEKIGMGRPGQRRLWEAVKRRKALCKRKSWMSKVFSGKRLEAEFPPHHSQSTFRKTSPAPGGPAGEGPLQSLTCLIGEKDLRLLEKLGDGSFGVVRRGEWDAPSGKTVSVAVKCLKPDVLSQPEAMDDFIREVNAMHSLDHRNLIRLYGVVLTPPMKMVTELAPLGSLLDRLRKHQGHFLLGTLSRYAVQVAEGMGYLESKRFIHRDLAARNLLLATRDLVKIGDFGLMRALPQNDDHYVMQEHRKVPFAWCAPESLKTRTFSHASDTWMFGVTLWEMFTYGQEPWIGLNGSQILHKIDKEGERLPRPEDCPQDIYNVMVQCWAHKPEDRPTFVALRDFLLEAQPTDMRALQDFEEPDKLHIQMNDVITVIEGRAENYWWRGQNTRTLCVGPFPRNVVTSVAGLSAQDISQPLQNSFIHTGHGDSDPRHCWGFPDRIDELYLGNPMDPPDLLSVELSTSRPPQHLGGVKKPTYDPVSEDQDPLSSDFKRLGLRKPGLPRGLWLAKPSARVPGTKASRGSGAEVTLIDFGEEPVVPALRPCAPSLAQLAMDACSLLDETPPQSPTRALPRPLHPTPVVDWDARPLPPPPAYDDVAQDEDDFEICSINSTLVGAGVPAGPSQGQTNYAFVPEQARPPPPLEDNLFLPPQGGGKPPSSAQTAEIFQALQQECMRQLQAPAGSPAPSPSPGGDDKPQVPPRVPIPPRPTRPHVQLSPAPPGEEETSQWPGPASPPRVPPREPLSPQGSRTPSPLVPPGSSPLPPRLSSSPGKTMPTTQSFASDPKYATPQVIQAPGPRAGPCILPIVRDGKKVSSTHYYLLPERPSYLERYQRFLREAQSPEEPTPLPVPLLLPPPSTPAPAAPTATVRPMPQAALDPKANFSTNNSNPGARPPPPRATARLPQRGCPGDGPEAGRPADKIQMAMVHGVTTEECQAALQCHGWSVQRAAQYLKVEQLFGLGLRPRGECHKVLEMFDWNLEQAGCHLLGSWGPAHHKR

CYP3A4 = CYP3A4 (Homo sapiens, UniProt P08684); assay: Inhibition of human CYP3A4 at 10 uM; format: ADME
CYP3A4, sequence (P08684 whole entry): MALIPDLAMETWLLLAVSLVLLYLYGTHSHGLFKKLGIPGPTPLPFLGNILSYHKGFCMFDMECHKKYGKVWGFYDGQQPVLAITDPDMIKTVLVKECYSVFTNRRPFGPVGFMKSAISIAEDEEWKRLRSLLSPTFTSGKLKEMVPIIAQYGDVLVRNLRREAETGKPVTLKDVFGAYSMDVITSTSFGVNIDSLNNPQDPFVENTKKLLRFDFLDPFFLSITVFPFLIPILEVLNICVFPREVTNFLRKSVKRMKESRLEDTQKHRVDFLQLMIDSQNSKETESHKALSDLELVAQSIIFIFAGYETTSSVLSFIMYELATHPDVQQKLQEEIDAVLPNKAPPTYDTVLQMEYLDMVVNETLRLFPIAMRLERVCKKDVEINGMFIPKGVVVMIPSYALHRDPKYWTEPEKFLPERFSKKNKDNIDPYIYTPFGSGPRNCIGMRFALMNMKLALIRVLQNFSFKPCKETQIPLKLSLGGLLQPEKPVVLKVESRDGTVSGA

[14] = Half life in CD-1 mouse blood at 1 uM by LC-MS/MS analysis; format: ADME, tissue-based
Canis familiaris [15] = assay: Toxicity in dog assessed as effect on blood pressure administered as single dose; format: organism-based, Canis lupus familiaris; conditions: in vivo
[16] = Terminal half life in Nu/Nu mouse at 1 mg/kg, iv administered as single dose; format: ADME, organism-based; conditions: in vivo, read-out: beta t1/2 (converted)
Canis familiaris [17] = assay: Toxicity in dog assessed as effect on blood pressure administered as repeated dosing; format: organism-based, Canis lupus familiaris; conditions: in vivo
[18] = target: Proto-oncogene tyrosine-protein kinase ROS (Homo sapiens) (UniProt P08922); assay: Inhibition of GST-tagged recombinant human ROS cytoplasmic domain (1883 to 2347 residues) expressed in Baculovirus expression system at 1 uM by FRET-based Z'-LYTE assay
Proto-oncogene tyrosine-protein kinase ROS (Homo sapiens), sequence (P08922 whole entry, the tested form may be a part): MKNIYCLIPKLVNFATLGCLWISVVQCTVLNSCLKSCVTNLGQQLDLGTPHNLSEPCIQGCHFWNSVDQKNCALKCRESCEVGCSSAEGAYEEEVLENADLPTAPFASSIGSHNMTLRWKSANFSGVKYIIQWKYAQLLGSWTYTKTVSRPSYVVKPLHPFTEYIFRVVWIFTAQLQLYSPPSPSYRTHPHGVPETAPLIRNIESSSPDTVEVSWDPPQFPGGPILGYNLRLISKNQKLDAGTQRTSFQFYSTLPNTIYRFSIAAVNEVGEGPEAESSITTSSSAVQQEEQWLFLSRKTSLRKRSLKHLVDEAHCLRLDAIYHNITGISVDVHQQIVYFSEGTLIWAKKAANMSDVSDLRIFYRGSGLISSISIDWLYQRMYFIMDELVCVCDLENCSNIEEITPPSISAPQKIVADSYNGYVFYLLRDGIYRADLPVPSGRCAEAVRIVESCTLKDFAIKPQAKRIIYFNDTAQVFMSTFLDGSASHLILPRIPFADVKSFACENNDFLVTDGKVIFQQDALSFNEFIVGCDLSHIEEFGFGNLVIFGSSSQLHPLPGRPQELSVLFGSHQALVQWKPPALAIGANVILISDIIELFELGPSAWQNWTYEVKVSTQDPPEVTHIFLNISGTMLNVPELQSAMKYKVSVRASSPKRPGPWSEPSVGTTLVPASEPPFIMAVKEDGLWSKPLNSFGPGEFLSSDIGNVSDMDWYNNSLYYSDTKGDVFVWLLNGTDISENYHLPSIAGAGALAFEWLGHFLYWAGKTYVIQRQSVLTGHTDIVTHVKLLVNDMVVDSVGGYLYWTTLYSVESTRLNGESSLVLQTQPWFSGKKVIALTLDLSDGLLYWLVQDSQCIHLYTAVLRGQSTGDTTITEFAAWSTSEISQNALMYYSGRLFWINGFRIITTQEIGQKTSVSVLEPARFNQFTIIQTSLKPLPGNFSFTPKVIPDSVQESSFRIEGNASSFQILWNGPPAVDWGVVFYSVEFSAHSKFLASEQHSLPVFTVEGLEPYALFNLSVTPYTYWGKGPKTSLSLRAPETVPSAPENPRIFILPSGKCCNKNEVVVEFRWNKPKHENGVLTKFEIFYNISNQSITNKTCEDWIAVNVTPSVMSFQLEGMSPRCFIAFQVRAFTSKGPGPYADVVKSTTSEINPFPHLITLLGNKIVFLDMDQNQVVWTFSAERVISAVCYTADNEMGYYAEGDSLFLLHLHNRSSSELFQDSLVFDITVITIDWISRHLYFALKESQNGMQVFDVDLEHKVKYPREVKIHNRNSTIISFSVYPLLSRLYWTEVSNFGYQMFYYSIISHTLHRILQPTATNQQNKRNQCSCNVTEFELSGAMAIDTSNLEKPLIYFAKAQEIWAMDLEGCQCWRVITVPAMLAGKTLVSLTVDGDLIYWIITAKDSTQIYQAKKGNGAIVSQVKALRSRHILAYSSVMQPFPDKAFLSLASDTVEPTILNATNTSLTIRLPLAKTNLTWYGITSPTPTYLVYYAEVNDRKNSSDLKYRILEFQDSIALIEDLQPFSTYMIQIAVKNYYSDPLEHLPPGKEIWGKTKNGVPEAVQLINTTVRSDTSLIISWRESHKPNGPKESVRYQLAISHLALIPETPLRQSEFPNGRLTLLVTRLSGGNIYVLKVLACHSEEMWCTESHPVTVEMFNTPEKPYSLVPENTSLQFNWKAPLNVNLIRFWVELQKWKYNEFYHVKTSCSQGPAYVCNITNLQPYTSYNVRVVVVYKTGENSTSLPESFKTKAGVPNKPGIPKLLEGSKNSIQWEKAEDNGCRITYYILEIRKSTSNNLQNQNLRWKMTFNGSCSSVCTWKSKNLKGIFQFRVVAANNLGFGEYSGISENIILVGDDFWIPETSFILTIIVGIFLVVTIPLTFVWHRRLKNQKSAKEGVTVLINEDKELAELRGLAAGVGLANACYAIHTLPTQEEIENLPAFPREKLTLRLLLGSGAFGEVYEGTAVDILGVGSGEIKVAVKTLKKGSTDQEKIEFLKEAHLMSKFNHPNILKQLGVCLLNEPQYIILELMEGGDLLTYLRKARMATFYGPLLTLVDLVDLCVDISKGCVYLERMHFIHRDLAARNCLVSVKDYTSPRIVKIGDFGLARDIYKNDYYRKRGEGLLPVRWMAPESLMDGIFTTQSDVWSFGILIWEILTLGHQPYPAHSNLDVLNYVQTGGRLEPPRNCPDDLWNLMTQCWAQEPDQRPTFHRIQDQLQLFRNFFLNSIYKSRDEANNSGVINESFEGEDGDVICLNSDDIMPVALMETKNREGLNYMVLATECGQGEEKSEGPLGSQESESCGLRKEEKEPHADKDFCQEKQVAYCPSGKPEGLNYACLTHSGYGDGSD

CYP1A2 = CYP1A2 (Homo sapiens, UniProt P05177); assay: Inhibition of human CYP1A2 at 10 uM; format: ADME
[19] = Apparent intrinsic clearance in mouse microsomes; format: ADME, Microsome; conditions: read-out: CL(app)
Canis familiaris [20] = assay: Toxicity in dog assessed as electrocardiogram changes administered as single dose; format: organism-based, Canis lupus familiaris; conditions: in vivo
[21] = Apparent intrinsic hepatic clearance in mouse hepatocytes; format: ADME, cell-based, Hepatocyte; conditions: read-out: CLH(app)
Canis familiaris [22] = assay: Toxicity in dog assessed as effect on central nervous system functions administered as repeated dosing; format: organism-based, Canis lupus familiaris; conditions: in vivo
[23] = target: Tyrosine-protein kinase JAK3 (Homo sapiens) (UniProt P52333); assay: Inhibition of JAK3 (unknown origin) at 1 uM by cell based assay
[24] = Half life in Beagle dog blood at 1 uM by LC-MS/MS analysis; format: ADME, tissue-based, Canis lupus familiaris
[25] = Drug metabolism in human liver microsomes assessed as demethylation; format: ADME, microsome
[26] = target: Proto-oncogene tyrosine-protein kinase ROS (Homo sapiens) (UniProt P08922); assay: Inhibition of ROS (unknown origin) at 1 uM by cell based assay
[27] = Apparent intrinsic clearance in rat microsomes; format: ADME, Microsome; conditions: read-out: CL(app)
[28] = Clearance in Wistar Han rat plasma at 1 mg/kg, iv administered as single dose; format: ADME, organism-based
[29] = Fraction unbound in rat plasma at 2 uM by LC-MS/MS based equilibrium dialysis method; format: ADME, cell-free
[30] = Oral bioavailability in Beagle dog at 3 mg/kg administered as single dose; format: ADME, organism-based, Canis lupus familiaris; conditions: in vivo
[31] = target: Tyrosine-protein kinase TXK (Homo sapiens) (UniProt P42681); assay: Inhibition of GST-tagged full-length recombinant human TXK cytoplasmic domain expressed in Baculovirus expression system at 1 uM by FRET-based Z'-LYTE assay
Tyrosine-protein kinase TXK (Homo sapiens), sequence (P42681 whole entry, the tested form may be a part): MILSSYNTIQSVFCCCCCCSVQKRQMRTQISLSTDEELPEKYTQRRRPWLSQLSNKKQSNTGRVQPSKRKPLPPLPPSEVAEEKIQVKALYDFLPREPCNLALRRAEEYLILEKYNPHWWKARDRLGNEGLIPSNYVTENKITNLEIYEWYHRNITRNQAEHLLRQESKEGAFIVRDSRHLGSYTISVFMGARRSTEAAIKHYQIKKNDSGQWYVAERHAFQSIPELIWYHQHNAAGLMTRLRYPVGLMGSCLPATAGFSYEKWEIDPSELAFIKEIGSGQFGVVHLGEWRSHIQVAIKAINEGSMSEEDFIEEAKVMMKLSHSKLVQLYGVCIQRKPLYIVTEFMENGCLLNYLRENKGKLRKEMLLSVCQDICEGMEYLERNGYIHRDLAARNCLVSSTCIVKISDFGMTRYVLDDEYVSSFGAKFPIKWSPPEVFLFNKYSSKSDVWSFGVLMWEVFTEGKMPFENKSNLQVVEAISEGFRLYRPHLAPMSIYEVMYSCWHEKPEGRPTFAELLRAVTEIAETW

physchem = conditions: octanol/water
Rattus norvegicus [32] = assay: Toxicity in rat assessed as effect on pulmonary system functions administered as single dose; format: organism-based; conditions: in vivo
[33] = Clearance in Nu/Nu mouse plasma at 1 mg/kg, iv administered as single dose; format: ADME, organism-based

- half-life [3]: 0.28 h
- inhibition at 10 µM (CYP2C9): < 30%
- inhibition [7]: > 50%
- inhibition [8]: Active
- Drug metabolism [9]: Metabolite_Detected
- Vd [11]: 0.66 L/kg
- inhibition [13]: > 50%
- inhibition at 10 µM (CYP3A4): < 30%
- half-life at 1 µM [14]: 5.1 h
- half-life [16]: 0.56 h
- inhibition [18]: > 50%
- inhibition at 10 µM (CYP1A2): < 30%
- CLint scaled [19]: 74 mL/min/kg
- CLint scaled [21]: 196 mL/min/kg
- inhibition [23]: Active
- half-life at 1 µM [24]: 4.65 h
- Drug metabolism [25]: Metabolite_Detected
- inhibition [26]: Active
- CLint scaled [27]: 141 mL/min/kg
- clearance [28]: 49 mL/min/kg
- fraction unbound at 2 µM [29]: 0.22
- bioavailability [30]: 66%
- inhibition [31]: > 50%
- logD (physchem): 2
- clearance [33]: 53 mL/min/kg
Compound: C=CC(=O)N[C@@H]1CN(c2nc(Nc3cn(C)nc3OC)c3ncn(C)c3n2)C[C@H]1F [MAVELERTINIB]
- Activity (Canis familiaris [1]): Non-Toxic
- Activity (Canis familiaris [2]): Non-Toxic
- Activity (Rattus norvegicus [4]): Non-Toxic
- Activity (Rattus norvegicus [5]): Non-Toxic
- Activity (Rattus norvegicus [6]): Non-Toxic
- Activity (Canis familiaris [10]): Non-Toxic
- Activity (Canis familiaris [12]): Non-Toxic
- Activity (Salmonella typhimurium): Non-Toxic
- Activity (Canis familiaris [15]): Non-Toxic
- Activity (Canis familiaris [17]): Non-Toxic
- Activity (Canis familiaris [20]): Non-Toxic
- Activity (Canis familiaris [22]): Non-Toxic
- Activity (Rattus norvegicus [32]): Non-Toxic
